Laboratory results reported in article PMC8707461, “In Vitro and In Vivo Inhibition of MATE1 by Tyrosine Kinase Inhibitors” (Pharmaceutics, 2021).
Several values for one entry are separate records, joined by “and”; a condition that tells them apart may be missing. Equal entries are not always repeated. Where two headings read alike, the source gives them in different places.

What was measured:
[1] = target: T1, human OCT2 (Homo sapiens, UniProt O15244); experiment: [14C]TEA uptake in HEK293 cells stably transfected with human OCT2; assay type: cell-based; conditions: TKI 10 µM
T1 construct: host or cells: HEK293 (Flp-In system, pcDNA5/FRT)
T1 sequence (O15244 1-555): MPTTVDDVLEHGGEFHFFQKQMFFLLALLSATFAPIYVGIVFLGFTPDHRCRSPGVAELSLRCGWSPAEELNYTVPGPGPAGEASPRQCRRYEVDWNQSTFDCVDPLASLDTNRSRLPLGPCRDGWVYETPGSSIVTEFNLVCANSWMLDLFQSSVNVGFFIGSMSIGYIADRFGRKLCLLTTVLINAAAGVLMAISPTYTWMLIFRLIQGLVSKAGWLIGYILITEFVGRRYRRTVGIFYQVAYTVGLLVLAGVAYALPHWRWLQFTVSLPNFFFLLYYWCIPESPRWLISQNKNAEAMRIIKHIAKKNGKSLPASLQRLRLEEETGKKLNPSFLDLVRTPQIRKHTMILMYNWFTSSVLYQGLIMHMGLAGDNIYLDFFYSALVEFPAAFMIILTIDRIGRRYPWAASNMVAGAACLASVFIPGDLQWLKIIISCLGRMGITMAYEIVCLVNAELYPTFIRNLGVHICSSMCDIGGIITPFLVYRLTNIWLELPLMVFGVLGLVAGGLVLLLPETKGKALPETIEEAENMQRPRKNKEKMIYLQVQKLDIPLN
Protocol: (§1) Uptake experiments in HEK293 cells overexpressing mouse (m) and human (h) OCT2 or MATE1 were performed with radiolabeled tetraethylammonium (TEA) as the model substrate, using standard methods in the presence or absence of TKIs. The cell culture and uptake conditions for cells expressing mMATE1 or hMATE1 were described previously. […] Since the inhibitory potential of various xenobiotics against OCT2 and MATE1 is dependent on preincubation with perpetrator drugs, a 15-min preincubation period with the TKIs was employed unless stated otherwise. All results were normalized to uptake values in cells transfected with an empty vector or DMSO-treated groups.
(§2) MATE1-overexpressed cells were pre-incubated with transport media containing 30 mM ammonium chloride for 20 min at 37 °C following previously published protocol (pH 7.4 for hMATE1 [17, 18, 19] and pH 8.4 for mMATE1 [20, 21]) to ensure interactions can be evaluated between outward-facing MATE1 and substrate uptake before adding inhibitors. Then, preincubation media was removed and cells were incubated with transport media (NH4Cl free) containing radiolabeled compounds. […] The uptake of TEA and metformin was measured by liquid scintillation counting, as described previously. For uptake studies involving platinum drugs, cells were collected with TrypLE, and the pellets were lysed overnight in 0.2% nitric acid. After sonication, total platinum levels were determined by flameless atomic absorption spectrometry.

[2] = target: T2, MATE1 (Homo sapiens, UniProt Q96FL8); experiment: [14C]TEA uptake in HEK293 cells overexpressing human MATE1; conditions: for inhibition of MATE1-mediated uptake of TEA (in words): TKI 10 µM; for inhibition at 10 µM: human
T2 sequence (Q96FL8 1-570): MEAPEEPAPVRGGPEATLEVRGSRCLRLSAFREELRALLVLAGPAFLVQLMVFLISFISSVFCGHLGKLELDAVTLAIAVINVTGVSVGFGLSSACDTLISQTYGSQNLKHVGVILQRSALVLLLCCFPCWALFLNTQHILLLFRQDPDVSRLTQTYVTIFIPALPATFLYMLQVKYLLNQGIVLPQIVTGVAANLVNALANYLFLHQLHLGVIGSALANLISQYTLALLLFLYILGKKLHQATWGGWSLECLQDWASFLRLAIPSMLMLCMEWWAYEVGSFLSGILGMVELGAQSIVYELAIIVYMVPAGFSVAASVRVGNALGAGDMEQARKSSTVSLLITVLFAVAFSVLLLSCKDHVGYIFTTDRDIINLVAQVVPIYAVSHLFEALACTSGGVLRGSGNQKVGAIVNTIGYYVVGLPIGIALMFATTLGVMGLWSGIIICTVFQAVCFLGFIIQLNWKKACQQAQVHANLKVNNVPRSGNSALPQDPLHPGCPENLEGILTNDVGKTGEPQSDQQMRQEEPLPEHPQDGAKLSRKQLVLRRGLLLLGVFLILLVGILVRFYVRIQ
Protocol: as §1, §2

[3] = tested on: MATE1; conditions: cited from earlier work
[4] = tested on: MATE1; experiment: Plasma N-methylnicotinamide (NMN) as MATE1 biomarker in mice after dasatinib; assay type: in vivo, mouse; conditions: wild-type mice, dasatinib 15 mg/kg oral
[5] = parameters: method as in PMID 18787054; conditions: cited from earlier work
[6] = tested on: human OCT2, or MATE1 transporters; conditions: dasatinib 10 µM, oxaliplatin 50 µM
Protocol: as §1
as §2, with “For uptake studies involving platinum drugs, cells were collected with TrypLE, and the pellets were lysed overnight in 0.2% nitric acid.” left out

[7] = tested on: mouse OCT2, or MATE1 transporters; conditions: dasatinib 10 µM, oxaliplatin 50 µM
Protocol: as §1
as §2, with “For uptake studies involving platinum drugs, cells were collected with TrypLE, and the pellets were lysed overnight in 0.2% nitric acid.” left out

[8] = tested on: MATE1 gene; experiment: MATE1 gene expression by RT-PCR in MATE1-overexpressing cells exposed to TKIs; assay type: cell-based, human
Source text: RNA was extracted using the Qiagen kit from treated cells in 12-well plates or kidney tissues obtained from untreated or treated mice. Taqman primers Hs00217320_m1 and Mm00840361_m1 were obtained from Thermo Fisher Scientific (Waltham, MA, USA) and used for the hMATE1 and mMATE1 genes. The primers Hs02786624_g1 and Mm99999915_g1 were used as the house-keeping control genes for hGAPDH and mGAPDH, respectively.

[9] = target: T3, mouse MATE1 (Mus musculus, UniProt Q8K0H1); experiment: cell-based
T3 sequence (Q8K0H1 1-567): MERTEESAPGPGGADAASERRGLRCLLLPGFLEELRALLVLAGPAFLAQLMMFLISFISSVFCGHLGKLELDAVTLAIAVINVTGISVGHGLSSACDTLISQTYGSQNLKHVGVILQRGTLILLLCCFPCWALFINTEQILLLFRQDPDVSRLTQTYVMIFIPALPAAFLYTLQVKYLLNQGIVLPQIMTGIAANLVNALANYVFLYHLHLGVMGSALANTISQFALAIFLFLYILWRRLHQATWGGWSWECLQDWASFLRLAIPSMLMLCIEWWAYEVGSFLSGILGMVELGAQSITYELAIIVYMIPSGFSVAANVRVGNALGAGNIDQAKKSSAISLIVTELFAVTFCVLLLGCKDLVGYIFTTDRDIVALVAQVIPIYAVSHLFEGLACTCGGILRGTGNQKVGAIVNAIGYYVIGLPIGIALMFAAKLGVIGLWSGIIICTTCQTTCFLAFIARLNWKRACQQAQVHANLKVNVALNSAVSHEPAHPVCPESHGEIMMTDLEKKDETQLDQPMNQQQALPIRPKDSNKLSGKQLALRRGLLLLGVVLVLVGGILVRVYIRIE
Protocol: as §1, §2

[10] = Human plasma pharmacokinetics of total platinum, patient with colorectal cancer; assay type: in vivo; conditions: oxaliplatin 85 mg/m2 i.v. infusion
Protocol: In order to assess the degree of MATE1 inhibition by dasatinib, analyses of N-methylnicotinamide (see below) were performed in plasma samples collected at serial time points (up to 24 h after the end of infusion). Plasma samples were also subjected to dasatinib analysis by liquid chromatography with tandem mass spectrometric detection (LC-MS/MS) and analyzed for total platinum levels by flameless atomic absorption spectrometry. The study protocol (ClinicalTrial.gov Identifier: NCT04164069) was approved by the institutional review board of the -The Ohio State University Comprehensive Cancer Center (OSU IRB #2019C0141, approval date 01 March 2019), and the patient provided written informed consent prior to enrollment.

[11] = Urinary excretion of oxaliplatin in mice (metabolic cages); assay type: in vivo, mouse; conditions: mice deficient in MATE1 or both OCT2 and MATE1 vs wild-type; oxaliplatin 10 mg/kg i.p.
[12] = cited from earlier work
[13] = Murine plasma pharmacokinetics of total platinum; assay type: in vivo, mouse
Source text: For pharmacokinetic studies, plasma and tissue samples were collected from male wild-type mice (8–12 weeks old), and age-matched MATE1-deficient [MATE1(−/−)] mice, and mice additionally deficient for OCT1 and OCT2 [OCT1/2/MATE1(−/−)], following an established protocol. All animals were backcrossed on an FVB strain, were given a standard diet and water ad libitum, and housed and handled in accordance with the University Laboratory Animal Resources (ULAR) Animal Care and Use Committee at The Ohio State University (2015A00000101-R1). […] Concentrations of total platinum in plasma and tissues were measured by flameless atomic absorption spectrometry, as previously reported, by interpolation of unknown readings on linear calibration curves prepared in drug-free nitric acid (0.2%) using linear-least squares regression analysis.

[14] = HEK293 cells overexpressing human MATE1, pH 7.4, probe [14C]TEA (tetraethylammonium), 2 µM
[15] = publicly available information, ref FDA/EMA or supplement refs 1-8
[16] = Mouse IC50, HEK293 cells overexpressing mouse MATE1
[17] = dasatinib pre-treatment 100 mg p.o.
[18] = OCT1,2/MATE1-/- mice + dasatinib 15 mg/kg p.o. pretreatment, oxaliplatin 10 mg/kg i.p.
[19] = OCT1,2/MATE1-/- mice, cisplatin 15 mg/kg i.p. or oxaliplatin 10 mg/kg i.p.
[20] = wild-type mice + dasatinib 15 mg/kg p.o. pretreatment, oxaliplatin 10 mg/kg i.p.
[21] = wild-type mice, cisplatin 15 mg/kg i.p. or oxaliplatin 10 mg/kg i.p.

COc1cc(Nc2c(C#N)cnc3cc(OCCCN4CCN(C)CC4)c(OC)cc23)c(Cl)cc1Cl [Bosutinib]
influence on OCT2 function (in words) [1]: potently inhibiting
inhibition of MATE1-mediated uptake of TEA (in words) [2]: potently inhibiting
inhibition at 10 µM [2, 14]: 99.2%
IC50 [3, 15]: < 10000 nM

Cc1nc(Nc2ncc(C(=O)Nc3c(C)cccc3Cl)s2)cc(N2CCN(CCO)CC2)n1 [Dasatinib]
plasma levels of NMN (in words) [4]: transient, statistically significant increase
ability of cells to transport oxaliplatin after dasatinib pre-treatment (in words) [6]: dramatically impaired
ability of cells to transport oxaliplatin after dasatinib pre-treatment (in words) [7]: dramatically impaired
expression of MATE1 (in words) [8]: downregulated
suppression of MATE1 gene expression [8]: ~ 50%
inhibition of MATE1-mediated uptake of TEA (in words) [2]: completely inhibited
inhibition at 10 µM [2, 14]: 95.4%

C=CC(=O)N1CCC[C@@H](n2nc(-c3ccc(Oc4ccccc4)cc3)c3c(N)ncnc32)C1 [Ibrutinib]
IC50 [9]: 51.5 µM
IC50 [2]: 1030 nM
inhibition at 10 µM ([2]; pH 7.4): 91.8%

Cc1cn(-c2cc(NC(=O)c3ccc(C)c(Nc4nccc(-c5cccnc5)n4)c3)cc(C(F)(F)F)c2)cn1 [Nilotinib]
expression of MATE1 (in words) [8]: downregulated
IC50 [9, 16]: 45.4 µM and 45.3 µM
inhibition at 10 µM [2, 14]: 95.7%

O=C1[O][Pt]2([NH][C@@H]3CCCC[C@H]3[NH]2)[O]C1=O [Oxaliplatin]
AUC [10, 17]: 11.6 µg·h/mL
Cmax [10, 17]: 0.87 µg/mL
AUC ([10]; without dasatinib): 11.3 µg·h/mL
Cmax ([10]; without dasatinib): 0.96 µg/mL
reduction of urinary excretion [11]: about 2 fold
fecal excretion [12]: about 2 % of the dose
urinary excretion [12]: > 50 % of the dose
AUC [13, 18]: 7.53 ± 0.90 µg·h/mL
Cmax [13, 18]: 3.86 ± 0.01 µg/mL
AUC [13, 19]: 10.5 ± 0.01 µg·h/mL
Cmax [13, 19]: 3.61 ± 0.18 µg/mL
AUC [13, 20]: 12.2 ± 0.71 µg·h/mL
Cmax [13, 20]: 4.80 ± 0.01 µg/mL
plasma pharmacokinetic profile after dasatinib pretreatment (in words) ([13]; wild-type mice, single dose of dasatinib 15 mg/kg): unchanged
AUC [13, 21]: 10.7 ± 1.00 µg·h/mL
Cmax [13, 21]: 2.76 ± 0.04 µg/mL

CNC(=O)c1cc(Oc2ccc(NC(=O)Nc3ccc(Cl)c(C(F)(F)F)c3)c(F)c2)ccn1 [Regorafenib]
influence on OCT2 function (in words) [1]: no influence
inhibition at 10 µM [2, 14]: 72.1%
IC50 [3, 15]: < 10000 nM

CNC(=O)c1cc(Oc2ccc(NC(=O)Nc3ccc(Cl)c(C(F)(F)F)c3)cc2)ccn1 [Sorafenib]
influence on OCT2 function (in words) [1]: no influence
inhibition at 10 µM [2, 14]: 83.8%

CCN(CC)CCNC(=O)c1c(C)[nH]c(/C=C2\C(=O)Nc3ccc(F)cc32)c1C [Sunitinib]
influence on OCT2 function (in words) [1]: potently inhibiting
inhibition of MATE1-mediated uptake of TEA (in words) [2]: potently inhibiting
inhibition at 10 µM ([2]; pH 7.4): 98%

CN/C(=N/CCSCc1nc[nH]c1C)NC#N [cimetidine]
IC50 [9, 16]: > 50 µM
